Counter-ions that a name gives are not always drawn.
How the values were obtained:
[1] = tested on: THP-1 cells; test: Viability of THP-1 cells treated directly; format: cell-based, human; conditions: amiodarone treatment of THP-1 cells alone
[2] = tested on: IPSC derived cardiomyocytes; test: Cardiac contractile force on cantilevers in 3-O/4-O systems; format: cell-based, human
Protocol: (§1) A four-organ system (4-O) was developed to contain a liver compartment, recirculating THP-1 cells, and three separate bioMEMs devices to measure the cardiomyocytes' electrical and mechanical functionality, as well as the mechanical function of the skeletal muscle. Three organ systems (3-0) were also developed to serve as a monocyte-free control for the 4-O systems. […] Cardiac and skeletal muscle mechanical function was evaluated by seeding the cardiomyocytes and skeletal muscle onto their own respective custom arrays of microscale cantilevers. Contractile force of the cardiac and skeletal muscle was calculated from laser-based measurements of cantilever bending resulting from contractile muscle (Stancescu et al 2015). Cardiac electrical function was measured via a microelectrode array amplifier system by incorporating and patterning cardiomyocytes onto custom microelectrode arrays with chemical patterning to produce a defined conduction path along a series of surface embedded microelectrodes (Nataraj an et al 2011, Stancescu et al 2015). Electrical stimulation for skeletal muscle force was generated inside the system with housing-embedded electrodes for cantilevers. […]
(§2) Cardiac and skeletal muscle contractions were measured using a cantilever deflection system that has been described previously (McAleer, 2014; Oleaga, 2016; Oleaga, 2017; Pirozzi, 2013). […]

[3] = tested on: 3-O systems+THP-1 cells; test: Cytokine release in multi-organ systems; format: cell-based, human; conditions: 50 uM amiodarone; 7-day time course
[4] = tested on: cardiac tissue; test: THP-1 cell infiltration into cardiac tissue (phase contrast, CellTracker Red); format: cell-based, human; conditions: 4-O system dosed with amiodarone, after three days
Protocol: THP-1 cells were collected in a 15 mL conical tube and centrifuged to a pellet at 300 g for 5 minutes. The cells were resuspended and counted and the volume adjusted to 1×10^6 cells/mL. Then cells were then incubated with Cell Tracker Red CMTPX Dye (ThermoFisher C34552) following the manufacturer's protocol. The dye loaded cells were then used for infiltration studies in 4-O systems as described.

[5] = tested on: IPSC derived cardiomyocytes; test: Cardiac conduction velocity on patterned cMEA in 3-O/4-O systems; format: cell-based, human
Protocol: as §1
Custom patterned multielectrode arrays (cMEAs) were fabricated to simultaneously stimulate and record electrical activity of cardiomyocytes cultured on the surface (100 μm diameter electrodes, 1000 μm between electrodes). Before culturing, the surfaces were modified to promote cell adhesion in an unbroken “U” pattern that connected multiple electrodes, allowing conduction velocity of the cells to be recorded at different points (14 mm total path length). […]
Drug additions were performed on day 3 of the experiment, immediately after baseline recordings of spontaneous and stimulated cell activity were taken. Cell activity was recorded again 48 and 96 hours after drug exposure. […]

[6] = tested on: skeletal muscle myotubes; test: Skeletal muscle force on cantilevers in 3-O/4-O systems; format: cell-based, human; conditions: 50 uM; up to four days after dose, with or without THP-1
Protocol: as §1, §2

[7] = tested on: IPSC derived cardiomyocytes; test: Cardiac spontaneous beat frequency in 3-O/4-O systems; format: cell-based, human
Description: Custom patterned multielectrode arrays (cMEAs) were fabricated to simultaneously stimulate and record electrical activity of cardiomyocytes cultured on the surface (100 μm diameter electrodes, 1000 μm between electrodes). Before culturing, the surfaces were modified to promote cell adhesion in an unbroken “U” pattern that connected multiple electrodes, allowing conduction velocity of the cells to be recorded at different points (14 mm total path length). Patterned cMEAs were introduced to the housings during system assembly on day 0 of the experiment.
Printed circuit boards (PCBs) and flexible elastomeric connectors (zebra connectors, FUJIPOLY, 1 mm wide×18.2 mm long×9 mm tall) were incorporated into each system to create an interface between the cMEA and a commercially available 60 electrode amplifier (MEA1060, Multichannel-systems). This amplifier was used to both record spontaneous and stimulated electrical activity of the cardiomyocytes. A stimulus generator (STG 1002, Multichannel Systems) was used to stimulate the cells (800 mV rectangular pulse, 0.5 Hz to 3.0 Hz in 0.25 Hz increments). The multichannel systems software suite was used to control both the amplifier and stimulator, and was used to record action potentials.
Drug additions were performed on day 3 of the experiment, immediately after baseline recordings of spontaneous and stimulated cell activity were taken. Cell activity was recorded again 48 and 96 hours after drug exposure. Conduction velocity (CV), spontaneous beat frequency and minimum interspike interval (MIST) were extracted from the data using Clampfit (Axon Instruments).
Spontaneous beat frequency was obtained from spontaneous recordings of cardiac activity 20 seconds in length. For each recording, the frequency was calculated as the number of measured action potentials divided by the length of time between the first and last action potential during the recording interval. […]

[8] = tested on: liver tissue; test: THP-1 infiltration into liver module by immunocytochemistry (CD11b, CD86); format: cell-based, human; conditions: systems with recirculating THP macrophages, amiodarone, vs controls
Protocol: At the end of each experiment, cardiac cMEAs and hepatocyte coverslips were fixed with 4% paraformaldehyde in 1×PBS for 5 minutes. Cells were rinsed twice with 1×PBS and Cells were permeabilized with a solution of 0.1% Triton X-100 in 1×PBS for 15 minutes then blocked with 5% donkey serum in 1×PBS for 20 minutes. Cells were then incubated overnight at 4° C. with primary antibody in blocking solution. Primary antibodies used were anti-CD14, anti-CD16, anti-CD69, anti-CD11b, anti-CD86, and anti-CCR5. Following three, five-minute washes with 1×PBS, cells were incubated for 2 hours at room temperature in the dark with a secondary antibody conjugated to Alexa-488 fluorophore, or Alexa-568 fluorophore. Following the secondary antibody incubation, surfaces were washed 3× in PBS and incubated with 3 mM 4′-6-Diamidino-2-Phenylindole (DAPI) in 1×PBS for 10 min, in the dark and at RT for nuclei staining. DAPI solution was removed and the cells were washed 3× with PBS. Finally, coverslips were mounted on glass slides using a Hard Set Mounting with DAPI (Vector laboratories, Inc.). Alternatively, MEAs were left in the final 1×PBS rinse and imaged using a water immersion lens.

[9] = tested on: skeletal muscle cells; test: Endpoint viability (alamar blue) of skeletal muscle chips; format: cell-based, human; conditions: 50 uM; endpoint day 7
Protocol: (§4) Cell viability was evaluated in one of three ways depending on the surface the cells were grown on. […] The viability of cardiac and skeletal muscle cells plated on BioMEMs devices was assessed using an alamar blue solution (Thermofisher, DAL1025). Surfaces were incubated in 500 μL of a 10% solution (v:v) of alamar blue in growth medium at 37° C., 5% CO2 for 24 hours. 100 μL of the solution was placed into a 96 well plate and read at fluorescence excitation wavelength 570 nm and emission at 590 nm using the BioTeK Synergy HT plate reader.

[10] = tested on: CYP1A; test: Liver cytochrome p450 activity, endpoint D7; format: cell-based, human; conditions: 4-O systems, 50 uM amiodarone vs untreated controls
Protocol: (§3) Cytochrome p450 1A1 and 3A4 isoforms from the hepatic cultures were assessed with a luciferin based method in two reactions. Basal activities were compared to induced activities upon incubations with 10 nM TCDD (Sigma, 48599) and 20 μM Rifampicin (Sigma, R3501) for 48 h, prior to the analysis. At 7, 14, 21 and 28 DIV, cells were rinsed 3 times with 1×PBS and incubated with 1A1 specific substrate, Luciferin-CEE (120 μM) (Promega, V8752) in phenol red-free 1×DMEM (Thermo Fisher Scientific, A1443001) for 3 h at 37° C. The enzymatic product (D-Luciferin) of the first reaction was collected and stored at −80° C. until further analysis. […] Twenty minutes after incubation at room temperature in the dark, luminescence was measured using a Synergy HT plate reader with KC4 software. […] 3A4 samples were measured separately from 1A1 samples due to high differences in luminescence emission. Similarly, induced and uninduced samples were measured separately. Each plate was measured a minimum of 5 times to ensure the photomultiplier detector was stabilized, and the average of all readings was taken for the final RLU values. A regression line with the standards (0.5-500 nM diluted in 1×DMEM), subtracting intrinsic DMEM luminescence from values, was obtained for each analysis. […]

[11] = tested on: THP-1 cells; test: THP-1 cell activation by flow cytometry (CCR5, CD11b, CD86); format: cell-based, human; parameters: CD86 expression (printed C86): dose or concentration left out as unconfirmed
Protocol: THP-1 monocytes (ATCC, TIB-202) were cultured in T-75 flasks according to the protocol recommended by ATCC. […] THP-1 cells show a proclivity towards forming large aggregates of loosely joined cells. These clumps were broken down back into single cells through the addition of deoxyribonuclease 1 (DNase 1, dissolved in 0.85% NaCl in water) (Sigma-Aldrich, D4513) at a concentration of 0.1 mg/mL. When cells had reached their optimal density, they were harvested and pelleted via centrifugation at 150×g for 5 min, resuspended in multi-organ system medium (MOSM) and added to the systems at a physiologically relevant concentration of 250,000 cells/mL. THP-1 cell adhesion to the inside surfaces of the housings was minimized by passivating the inside surfaces with bovine serum albumin (BSA, 0.5 mg/mL dissolved in PBS). 10 uL of medium was removed from each system daily to determine the number of freely recirculating cells present. Initial THP-1 culture medium consisted of RPMI 1640 base medium (ThermoFisher, 11875135) with 10% fetal bovine serum (ThermoFisher, 16000044) and 1× GlutaMAX (ThermoFisher, 35050061).

[12] = target: CYP2C9 (Homo sapiens, UniProt P11712); test: Liver cytochrome p450 activity, endpoint D7; format: cell-based; conditions: 4-O systems, 50 uM amiodarone vs untreated controls
[13] = HPLC/MS determination of amiodarone remaining in system medium; format: in vitro ADME; conditions: 24 hours post-dose
Protocol: Drug addition to the 3-O and 4-O systems was performed on D3 post-assembly. On the day of addition, 3× concentrations of each drug in the serum-free, multi-organ system medium (MOSM) were prepared in advance. ⅓ of the media in each system was removed and replaced with an equal volume of the concentrated drug solution. This facilitated for rapid mixing and complete diffusion of the drugs in the systems without requiring a full media change. […] Lipopolysaccharide (LPS, Sigma-Aldrich, L2630) was dissolved in PBS 1× at a concentration of 1 μg/mL and interferon-γ (IFN-γ) (Sigma-Aldrich, 11040596001) was dissolved in DI water at a concentration of 100,000 units/mL. LPS and IFN-γ were administered as a single cocktail at final concentrations of 10 ng/mL and 100 units/mL, respectively.
Medium samples collected from the systems were spiked with a tamoxifen internal standard (10 nM final measured concentration) and combined with acetonitrile at a 1:3 ratio to extract proteins. The mixtures were then centrifuged at 100×G for 5 minutes and supernatants were collected and diluted 1 to 51 in the initial mobile phase. […] Quantification and qualification ions for tamoxifen were 372.2→72.1 (28 eV CE) and 372.2→44 (48 eV), respectively. […]

[14] = tested on: cardiac cells; test: Endpoint viability (alamar blue) of cardiac chips; format: cell-based, human; conditions: 50 uM; endpoint day 7
Protocol: as §4

[15] = target: CYP3A4 (Homo sapiens, UniProt P08684); test: Liver cytochrome p450 activity, endpoint D7; format: cell-based; conditions: 4-O systems, 50 uM amiodarone vs untreated controls
Protocol: as §3

[16] = 50 uM acute, 4-O systems (with THP-1 cells)
[17] = 50 uM, 4-O systems, D4 after dose
[18] = 50 uM, without THP-1, vs untreated 3-O systems
[19] = amiodarone treatment of THP-1 cells alone
[20] = recirculating THP-1 cells from 4-O & 4-O+Amiodarone systems, days 1, 3, 5, 7
[21] = THP-1 culture dosed with 50 μM PMA (positive control)

CYP3A4, sequence (P08684 whole entry): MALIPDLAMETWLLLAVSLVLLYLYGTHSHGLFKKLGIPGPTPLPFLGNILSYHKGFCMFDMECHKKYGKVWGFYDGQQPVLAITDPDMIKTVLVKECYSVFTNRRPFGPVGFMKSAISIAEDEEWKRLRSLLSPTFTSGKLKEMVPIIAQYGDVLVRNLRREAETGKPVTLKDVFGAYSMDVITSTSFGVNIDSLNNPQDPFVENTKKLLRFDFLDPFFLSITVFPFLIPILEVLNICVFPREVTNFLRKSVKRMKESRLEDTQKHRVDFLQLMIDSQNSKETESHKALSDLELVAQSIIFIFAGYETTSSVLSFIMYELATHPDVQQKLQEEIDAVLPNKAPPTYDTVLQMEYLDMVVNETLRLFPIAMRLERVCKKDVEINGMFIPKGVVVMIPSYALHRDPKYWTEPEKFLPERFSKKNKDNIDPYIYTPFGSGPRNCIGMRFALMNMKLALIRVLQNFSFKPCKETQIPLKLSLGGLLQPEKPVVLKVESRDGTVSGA
CYP2C9, sequence (P11712 whole entry): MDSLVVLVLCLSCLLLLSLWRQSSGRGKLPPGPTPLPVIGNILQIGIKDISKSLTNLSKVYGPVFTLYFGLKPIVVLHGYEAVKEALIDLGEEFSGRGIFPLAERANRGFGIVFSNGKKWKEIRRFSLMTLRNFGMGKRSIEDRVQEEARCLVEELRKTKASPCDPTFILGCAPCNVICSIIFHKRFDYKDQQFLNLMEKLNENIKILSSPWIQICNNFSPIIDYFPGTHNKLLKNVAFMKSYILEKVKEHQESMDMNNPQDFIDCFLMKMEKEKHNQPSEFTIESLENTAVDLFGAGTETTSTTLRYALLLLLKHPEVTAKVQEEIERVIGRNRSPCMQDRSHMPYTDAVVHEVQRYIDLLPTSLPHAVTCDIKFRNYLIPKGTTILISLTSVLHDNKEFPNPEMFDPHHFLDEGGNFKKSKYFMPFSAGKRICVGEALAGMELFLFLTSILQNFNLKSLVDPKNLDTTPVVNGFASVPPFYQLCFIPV

SMILES: CCCCc1oc2ccccc2c1C(=O)c1cc(I)c(OCCN(CC)CC)c(I)c1 [amiodarone, Amiodarone hydrochloride]
- THP-1 cell viability [1]: did not significantly alter
- decrease in cardiac force output [2, 16]: 80%
- decrease in cardiac force output ([2]; acute dose 50 uM, printed as 4-O systems treated vs untreated systems): 50%
- IL-6 level [3]: increased
- IL-8 level [3]: increased
- MCP-1 level [3]: increased
- THP-1 cell infiltration into cardiac tissue [4]: visibly infiltrated
- decrease in cardiac conduction velocity [5, 16]: 50%
- conduction velocity at D4 [5, 17]: recovery
- reduction of cardiac conduction velocity [5, 18]: 20%
- effect on skeletal muscle force [6]: no significant effect
- decrease in cardiac beat frequency [7, 16]: 60%
- beat frequency at D4 [7, 17]: recovery
- reduction of cardiac beat frequency [7, 18]: 45%
- CD11b and CD86 staining of liver cells (THP infiltration) [8]: increase
- skeletal muscle chip viability [9]: does not significantly reduce viability
- CYP1A activity [10]: not affected
- CCR5 expression [11, 19]: did not significantly alter
- CD11b expression [11, 19]: did not significantly alter
- CD86 expression [11, 19]: did not significantly alter
- CCR5 expression [11, 20]: largely stable
- CD11b expression [11, 20]: increased
- CD86 expression [11, 20]: largely stable
- CYP2C9 activity [12]: not affected
- amiodarone mean concentration still present in the systems ([13]; 50 μM dose, 3-O systems+THP-1 cells): 1.41 µM
- reduction of amiodarone in medium ([13]; from 50 μM): 97%
- cardiac chip viability [14]: does not significantly reduce viability
- CYP3A4 activity [15]: significantly reduced

SMILES: CCCCCCCCCCCCCC(=O)O[C@@H]1[C@@H](C)[C@@]2(O)[C@@H](C=C(CO)C[C@]3(O)C(=O)C(C)=C[C@@H]23)[C@@H]2C(C)(C)[C@]12OC(C)=O [PMA, phorbol 12-myristate 13-acetate]
- increase in CCR5 expression [11, 21]: 8%
- increase in CD11b expression [11, 21]: 23%
- CD86 expression (printed C86) ([11]; THP-1 culture dosed with PMA (positive control)): relatively unchanged

— patent US11554373B2 (priority 2016, dated 2023)
